Laboratory results: ChEMBL document CHEMBL1140542, “Cryptadines A and B, novel C27N3-type pentacyclic alkaloids from Lycopodium cryptomerinum” (Bioorg Med Chem, 2007)

Target: T1, Acetylcholinesterase (Bos taurus, UniProt P23795)
T1 sequence (P23795 whole entry): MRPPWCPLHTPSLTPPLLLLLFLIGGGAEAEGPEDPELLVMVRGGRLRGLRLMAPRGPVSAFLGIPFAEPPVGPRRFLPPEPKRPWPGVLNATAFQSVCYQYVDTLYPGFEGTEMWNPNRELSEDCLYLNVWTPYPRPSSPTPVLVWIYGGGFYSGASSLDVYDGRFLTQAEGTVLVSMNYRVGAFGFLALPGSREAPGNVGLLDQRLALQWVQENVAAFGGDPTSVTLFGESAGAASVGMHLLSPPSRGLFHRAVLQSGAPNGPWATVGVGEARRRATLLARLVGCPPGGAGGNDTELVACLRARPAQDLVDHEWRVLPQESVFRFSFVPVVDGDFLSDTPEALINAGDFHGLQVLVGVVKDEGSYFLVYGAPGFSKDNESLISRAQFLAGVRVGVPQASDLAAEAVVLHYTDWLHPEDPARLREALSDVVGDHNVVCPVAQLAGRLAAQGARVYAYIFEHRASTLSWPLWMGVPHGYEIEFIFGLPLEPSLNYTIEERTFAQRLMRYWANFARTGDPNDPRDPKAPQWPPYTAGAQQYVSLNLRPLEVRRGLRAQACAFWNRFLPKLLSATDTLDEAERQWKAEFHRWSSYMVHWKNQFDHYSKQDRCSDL
Experiment: Inhibition of bovine acetylcholinesterase

SMILES: CC(=O)N1CCCC2=C(C[C@H]3CCC[C@H](CC4=C5CCCN(C)[C@H]5C[C@@H](C)C4)N3)C[C@H](C)C[C@@H]21 [CRYPTADINE A]
- IC50: 106 µM

SMILES: CC(=O)N1CCCC2=C(C[C@H]3CCC[C@H](CC4=C5CCCN(C)[C@H]5C[C@H](C)C4)N3)C[C@H](C)C[C@@H]21 [CRYPTADINE B]
- IC50: 18.5 µM
